Reference: PubChem BioAssay AID248 (DTP/NCI, 2004)
Toxic doses and inconclusive results are not listed. Rule as the data show it: active = T/C of 150% or more; inactive = T/C below 125%.

Tested on: L1210 leukemia ip in BDF1 mice, survival T/C
Assay: NCI In Vivo Anticancer Drug Screen. Data for tumor model L1210 Leukemia (intraperitoneal) in B6D2F1 (BDF1) mice
Conditions: endpoint: mean survival time, higher = longer survival
Outline: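 Ratio derived from survival: compound-dosed mice over vehicle-dosed mice, all bearing a transplantable tumor.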

[1] = dose: 100.0 mg/kg/injection, schedule: Q04DX002 (ip), vehicle: Klucel (hydroxypropylcellulose) (HPC)
[2] = dose: 200.0 mg/kg/injection, schedule: Q04DX002 (ip), vehicle: Klucel (hydroxypropylcellulose) (HPC)
[3] = dose: 400.0 mg/kg/injection, schedule: Q04DX002 (ip), vehicle: Klucel (hydroxypropylcellulose) (HPC)

Measured: T/C

O=C(c1ccccc1)c1ccc2c3c(cccc13)C(=O)c1ccccc1-2
inactive: dose: 100.0 mg/kg/injection, schedule: Q01DX001 (ip), vehicle: saline with Tween-80 92 % of control | dose: 200.0 mg/kg/injection, schedule: Q01DX001 (ip), vehicle: saline with Tween-80 92 % of control | dose: 400.0 mg/kg/injection, schedule: Q01DX001 (ip), vehicle: saline with Tween-80 88 % of control

O=S(=O)(CBr)C1C2C=CC(C2)C1c1ccccc1 (stereo not given)
inactive: [1] 106 % of control | [2] 106 % of control | [3] 97 % of control

C=CC[Se]c1ncnc2c1ncn2C1OC(CO)C(O)C1O (stereo not given)
inactive: dose: 12.5 mg/kg/injection, schedule: Q01DX005 (ip), vehicle: saline 100 % of control | dose: 25.0 mg/kg/injection, schedule: Q01DX005 (ip), vehicle: saline 110 % of control | dose: 50.0 mg/kg/injection, schedule: Q01DX005 (ip), vehicle: saline 104 % of control | dose: 50.0 mg/kg/injection, schedule: Q01DX009 (ip), vehicle: saline 90 % of control | dose: 100.0 mg/kg/injection, schedule: Q01DX009 (ip), vehicle: saline 88 % of control

O=C(Cc1cccc2ccccc12)OCCBr
inactive: dose: 222.0 mg/kg/injection, schedule: Q01DX Z (ip), vehicle: methylcellulose (MC) 100 % of control | dose: 333.0 mg/kg/injection, schedule: Q01DX Z (ip), vehicle: methylcellulose (MC) 100 % of control | dose: 500.0 mg/kg/injection, schedule: Q01DX Z (ip), vehicle: methylcellulose (MC) 96 % of control

CCC1(c2ccccc2)C(=O)N(COCc2ccccc2)C(=O)N(COCc2ccccc2)C1=O
inactive: dose: 100.0 mg/kg/injection, schedule: Q01DX009 (ip), vehicle: saline with Tween-80 98 % of control | dose: 100.0 mg/kg/injection, schedule: Q04DX002 (ip), vehicle: saline with Tween-80 98 % of control | dose: 200.0 mg/kg/injection, schedule: Q01DX009 (ip), vehicle: saline with Tween-80 102 % of control | dose: 200.0 mg/kg/injection, schedule: Q04DX002 (ip), vehicle: saline with Tween-80 95 % of control | dose: 400.0 mg/kg/injection, schedule: Q01DX009 (ip), vehicle: saline with Tween-80 95 % of control | dose: 400.0 mg/kg/injection, schedule: Q04DX002 (ip), vehicle: saline with Tween-80 98 % of control

c1ccc(-n2nc3c(c2-c2ccc(OCCN4CCCC4)cc2)CCCc2ccccc2-3)cc1
inactive: dose: 100.0 mg/kg/injection, schedule: Q04DX003 (ip), vehicle: saline with Tween-80 88 % of control

Cc1cc(C)c(S(=O)(=O)c2c(C)cc(C)c([N+](=O)[O-])c2C)c(C)c1[N+](=O)[O-]
inactive: dose: 100.0 mg/kg/injection, schedule: Q01DX009 (ip), vehicle: Klucel (hydroxypropylcellulose) (HPC) 98 % of control | dose: 100.0 mg/kg/injection, schedule: Q04DX003 (ip), vehicle: Klucel (hydroxypropylcellulose) (HPC) 92 % of control | dose: 200.0 mg/kg/injection, schedule: Q01DX009 (ip), vehicle: Klucel (hydroxypropylcellulose) (HPC) 88 % of control | dose: 200.0 mg/kg/injection, schedule: Q04DX003 (ip), vehicle: Klucel (hydroxypropylcellulose) (HPC) 93 % of control | dose: 400.0 mg/kg/injection, schedule: Q01DX009 (ip), vehicle: Klucel (hydroxypropylcellulose) (HPC) 88 % of control | dose: 400.0 mg/kg/injection, schedule: Q04DX003 (ip), vehicle: Klucel (hydroxypropylcellulose) (HPC) 90 % of control

O=S(=O)(NC(CCl)=NC1CCCCC1)c1ccccc1
inactive: [1] 89 % of control | [2] 100 % of control | [3] 104 % of control
